Experimental data published in patent EP1611889A1, “ANTIBACTERIAL AGENT AND ANTICANCER AGENT” (MITSUBISHI CORPORATION, priority 2003, dated 2004).

Test: Solubility in DMSO
Assay type: physicochemical

C60-bis(N,N-dimethyl-2-hexylpyyrolidinium iodido) [derivative 4]
dissolved in DMSO at a concentration: ≥ 5 mM
